Measurements reported in US8221737B2, “Hepatitis C virus inhibitors” (Enanta Pharmaceuticals, Inc., priority 2009, dated 2012).

Each molecule was assayed on HCV 1b genotype replicon (assay: HCV replicon assay - qRT-PCR (HCV RNA detection)). Settings: Hepatitis C virus, from the qRT-PCR or luciferase assay (not specified which), EC50 range class.
Format: cell-based
Excerpt: HCV replicon cell lines (kindly provided by R. Bartenschlager) isolated from colonies as described by Lohman et. al. (Lohman et al. (1999) Science 285: 110-113, expressly incorporated by reference in its entirety) and used for all experiments. The HCV replicon has the nucleic acid sequence set forth in EMBL Accession No.: AJ242651, the coding sequence of which is from nucleotides 1801 to 8406.
The coding sequence of the published HCV replicon was synthesized and subsequently assembled in a modified plasmid pBR322 (Promega, Madison, Wis.) using standard molecular biology techniques. One replicon cell line (“SGR 11-7”) stably expresses HCV replicon RNA which consists of (i) the HCV 5′UTR fused to the first 12 amino acids of the capsid protein, (ii) the neomycin phosphotransferase gene (neo), (iii) the IRES from encephalomyocarditis virus (EMCV), and (iv) HCV NS2 to NS5B genes and the HCV 3′UTR. Another replicon cell line (“Huh-luc/neo-ET”) described by Vrolijk et. al. (Vrolijk et. al. (2003) Journal of Virological Methods 110:201-209, expressly incorporated by reference in its entirety) stably expresses HCV replicon RNA which consists of (i) the HCV 5′UTR fused to the first 12 amino acids of the capsid protein, (ii) the firefly luciferase reporter gene, (iii) the ubiquitin gene, (iv) the neomycin phosphotransferase gene (neo), (v) the IRES from encephalomyocarditis virus (EMCV), and (vi) HCV NS3 to NS5B genes that harbor cell culture adaptive mutations (E1202G, T12801, K1846T) and the HCV 3′UTR.
These cell lines were maintained at 37° C., 5% CO2, 100% relative humidity in DMEM (Cat#11965-084, Invitrogen), with 10% fetal calf serum (“FCS”, Invitrogen), 1% non-essential amino acids (Invitrogen), 1% of Glutamax (Invitrogen), 1% of 1 OOX penicillin/streptomycin (Cat#15140-122, Invitrogen) and Geneticin (Cat#10131-027, Invitrogen) at 0.75 mg/ml or 0.5 mg/ml for 11-7 and Huh-luc/neo-ET cells, respectively.
EC50 values of single agent compounds and combinations were determined by HCV RNA detection using quantitative RT-PCR, according to the manufacturer's instructions, with a TAQMAN® One-Step RT-PCR Master Mix Reagents Kit (Cat# AB 4309169, Applied Biosystems) on an ABI Model 7500 thermocycler. The TaqMan primers used for detecting and quantifying HCV RNA were obtained from Integrated DNA Technologies. HCV RNA was normalized to GAPDH RNA levels in drug-treated cells, which is detected and quantified using the Human GAPDH Endogenous Control Mix (Applied Biosystems, AB 4310884E). Total cellular RNA is purified from 96-well plates using the RNAqueous 96 kit (Ambion, Cat# AM1812). Chemical agent cytotoxicity is evaluated using an MTS assay according to the manufacturer's directions (Promega).
The compounds of the present invention can be effective against the HCV 1b genotype. It should also be understood that the compounds of the present invention can inhibit multiple genotypes of HCV. In one embodiment compound of the present invention are active against the 1a, 1b, 2a, 2b, 3a, 4a, and 5a genotypes. […] EC50 ranges against HCV 1b are as follows: A>10 nM; B1-10 nM; C<1 nM.

**Q.** For `CCN(NC(=O)OC)C(=O)N1CCC[C@H]1c1ncc(-c2ccc(C#Cc3ccc4nc([C@@H]5CCCN5C(=O)[C@@H](NC(=O)OC)C(C)C)[nH]c4c3)cc2)[nH]1` [Example 370], which EC50 is on record?
**A.** < 1 nM

**Q.** Which EC50 does the source give for `CCN(NC(=O)OC)C(=O)N1CCC[C@H]1c1ncc(-c2ccc(-c3ccc(-c4cnc([C@@H]5CCCN5C(=O)[C@@H](NC(=O)OC)C(C)C)[nH]4)cc3)cc2)[nH]1` [Example 375] here?
**A.** < 1 nM

**Q.** `COC(=O)NN(C(=O)N1CCC[C@H]1c1ncc(-c2ccc(-c3ccc(-c4cnc([C@@H]5CCCN5C(=O)N(NC(=O)OC)C(C)C)[nH]4)cc3)cc2)[nH]1)C(C)C` [Example 373] was tested. Which EC50 did it give?
**A.** < 1 nM

**Q.** How did the EC50 turn out when `COC(=O)N[C@H](C(=O)N1CCC[C@H]1c1ncc(-c2ccc(-c3ccc(-c4cnc([C@@H]5CCCN5C(=O)N(NC(=O)OC)C(C)C)[nH]4)cc3)cc2)[nH]1)C(C)C` [Example 374] was run?
**A.** < 1 nM

**Q.** With `COC(=O)N[C@H](C(=O)N1CCC[C@H]1c1nc2ccc(C#Cc3ccc(-c4cnc([C@@H]5CCCN5C(=O)N(CC(C)C)NC(=O)OC)[nH]4)cc3)cc2[nH]1)C(C)C` [Example 372] as the molecule, how does the EC50 read?
**A.** < 1 nM

**Q.** With `CCCN(NC(=O)OC)C(=O)N1CCC[C@H]1c1ncc(-c2ccc(C#Cc3ccc4nc([C@@H]5CCCN5C(=O)[C@@H](NC(=O)OC)C(C)C)[nH]c4c3)cc2)[nH]1` [Example 371] as the molecule, how does the EC50 read?
**A.** < 1 nM

**Q.** With `COC(=O)N[C@H](C(=O)N1CCC[C@H]1c1nc2ccc(C#Cc3ccc(-c4cnc([C@@H]5CCCN5C(=O)N(NC(=O)OC)C(C)C)[nH]4)cc3)cc2[nH]1)C(C)C` [Example 369] as the molecule, how does the EC50 read?
**A.** < 1 nM

**Q.** `COC(=O)N[C@H](C(=O)N1CCC[C@H]1c1ncc(-c2ccc3cc(-c4ccc5[nH]c(N6CCCN6C(=O)[C@@H](NC(=O)OC)C(C)C)nc5c4)ccc3c2)[nH]1)C(C)C` [Example 368] was tested. Which EC50 did it give?
**A.** < 1 nM
